Experimental data: ChEMBL document CHEMBL1153484, “Design, synthesis and evaluation of N-[(3S)-pyrrolidin-3-yl]benzamides as selective noradrenaline reuptake inhibitors: CNS penetration in a more polar template” (Bioorg Med Chem Lett, 2009)
The source made the active and inactive calls. No cut-off for these calls is given here.

What was measured:
[1] = target: Sodium-dependent dopamine transporter (Homo sapiens, UniProt Q01959); assay: Displacement of radioligand from human recombinant DAT expressed in HEK293 cells by scintillation proximity assay; format: cell-based
[2] = target: Sodium-dependent serotonin transporter (Homo sapiens, UniProt P31645); assay: Displacement of [3H]citalopram from human recombinant SERT expressed in HEK293 cells by scintillation proximity assay; format: cell-based
Sequence of Sodium-dependent serotonin transporter (P31645 whole entry): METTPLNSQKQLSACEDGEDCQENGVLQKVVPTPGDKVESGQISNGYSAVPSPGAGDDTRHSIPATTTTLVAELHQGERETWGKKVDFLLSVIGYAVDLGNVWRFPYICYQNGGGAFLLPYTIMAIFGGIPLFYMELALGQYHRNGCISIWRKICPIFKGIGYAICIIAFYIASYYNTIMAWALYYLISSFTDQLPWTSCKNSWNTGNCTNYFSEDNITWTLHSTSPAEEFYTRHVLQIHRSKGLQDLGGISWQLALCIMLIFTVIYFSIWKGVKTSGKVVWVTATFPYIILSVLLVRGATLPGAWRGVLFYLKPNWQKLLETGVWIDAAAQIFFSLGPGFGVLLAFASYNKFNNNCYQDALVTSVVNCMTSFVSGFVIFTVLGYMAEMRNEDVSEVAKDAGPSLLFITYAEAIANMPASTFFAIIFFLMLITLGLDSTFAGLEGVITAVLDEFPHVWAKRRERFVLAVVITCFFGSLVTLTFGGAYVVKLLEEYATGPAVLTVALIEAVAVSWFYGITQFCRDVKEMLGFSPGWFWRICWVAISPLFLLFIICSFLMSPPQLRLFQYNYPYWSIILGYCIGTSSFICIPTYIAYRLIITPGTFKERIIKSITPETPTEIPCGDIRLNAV

[3] = target: Sodium-dependent noradrenaline transporter (Homo sapiens, UniProt P23975); assay: Displacement of [3H]nisoxetine from human recombinant NET expressed in HEK293 cells by scintillation proximity assay; format: cell-based
[4] = target: Voltage-gated inwardly rectifying potassium channel KCNH2 (Homo sapiens, UniProt Q12809); assay: Displacement of [3H]dofetilide from human ERG
Sequence of Voltage-gated inwardly rectifying potassium channel KCNH2 (Q12809 whole entry): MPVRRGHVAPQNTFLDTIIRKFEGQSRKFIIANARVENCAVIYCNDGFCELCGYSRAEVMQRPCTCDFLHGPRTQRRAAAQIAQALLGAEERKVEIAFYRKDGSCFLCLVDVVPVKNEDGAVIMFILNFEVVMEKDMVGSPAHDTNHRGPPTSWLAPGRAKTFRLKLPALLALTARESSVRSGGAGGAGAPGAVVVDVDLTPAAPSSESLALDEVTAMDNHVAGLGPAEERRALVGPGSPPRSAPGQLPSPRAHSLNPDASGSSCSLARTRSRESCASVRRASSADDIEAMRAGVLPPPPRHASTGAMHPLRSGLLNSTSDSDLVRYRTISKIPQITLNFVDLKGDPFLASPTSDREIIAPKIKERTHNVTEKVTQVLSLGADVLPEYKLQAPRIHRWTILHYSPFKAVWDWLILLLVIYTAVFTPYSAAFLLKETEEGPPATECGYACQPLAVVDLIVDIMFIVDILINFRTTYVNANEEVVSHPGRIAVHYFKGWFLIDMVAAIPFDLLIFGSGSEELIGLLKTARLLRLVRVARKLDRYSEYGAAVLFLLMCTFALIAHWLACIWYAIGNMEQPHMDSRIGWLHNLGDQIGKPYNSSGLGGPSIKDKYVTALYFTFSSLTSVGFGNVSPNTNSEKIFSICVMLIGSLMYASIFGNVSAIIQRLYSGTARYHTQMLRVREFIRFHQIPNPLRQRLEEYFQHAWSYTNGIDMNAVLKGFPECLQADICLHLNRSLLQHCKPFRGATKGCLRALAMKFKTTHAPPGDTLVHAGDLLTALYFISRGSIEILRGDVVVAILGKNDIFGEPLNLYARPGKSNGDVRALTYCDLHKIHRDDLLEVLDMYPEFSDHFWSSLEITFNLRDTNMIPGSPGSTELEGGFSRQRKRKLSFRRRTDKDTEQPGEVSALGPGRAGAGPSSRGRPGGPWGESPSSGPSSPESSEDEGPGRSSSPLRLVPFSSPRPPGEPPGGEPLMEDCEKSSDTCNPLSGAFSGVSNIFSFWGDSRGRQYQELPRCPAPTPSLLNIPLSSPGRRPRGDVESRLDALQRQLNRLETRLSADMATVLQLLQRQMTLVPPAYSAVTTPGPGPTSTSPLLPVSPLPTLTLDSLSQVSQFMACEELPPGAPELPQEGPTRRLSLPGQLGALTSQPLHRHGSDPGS

[5] = Intrinsic clearance in human liver microsomes; format: ADME, Microsome
Cytochrome P450 2D6 = Cytochrome P450 2D6 (Homo sapiens, UniProt P10635); assay: Inhibition of CYP2D6; format: ADME
hERG (KCNH2) = hERG (KCNH2) (Homo sapiens, UniProt Q12809); assay: Displacement of [3H]dofetilide from human ERG at 10 uM; conditions: probe [3H]dofetilide
[6] = target: T1, Muscarinic acetylcholine receptor M4 (Homo sapiens) (UniProt P08173); assay: Binding affinity to human muscarinic M4 receptor at 10 uM
T1 sequence (whole entry): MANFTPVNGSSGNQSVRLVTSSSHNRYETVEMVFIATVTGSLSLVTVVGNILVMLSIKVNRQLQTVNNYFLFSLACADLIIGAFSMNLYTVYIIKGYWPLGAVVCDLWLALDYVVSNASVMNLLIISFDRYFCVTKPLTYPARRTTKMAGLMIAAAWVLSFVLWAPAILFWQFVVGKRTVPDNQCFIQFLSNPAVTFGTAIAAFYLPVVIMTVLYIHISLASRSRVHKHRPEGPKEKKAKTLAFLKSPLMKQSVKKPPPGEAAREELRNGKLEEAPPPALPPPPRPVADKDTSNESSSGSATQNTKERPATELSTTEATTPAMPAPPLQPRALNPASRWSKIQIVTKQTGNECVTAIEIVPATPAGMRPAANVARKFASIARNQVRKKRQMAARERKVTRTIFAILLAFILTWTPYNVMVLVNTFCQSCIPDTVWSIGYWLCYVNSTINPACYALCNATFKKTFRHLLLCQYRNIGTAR

[7] = target: T2, Muscarinic acetylcholine receptor M5 (Homo sapiens) (UniProt P08912); assay: Binding affinity to human muscarinic M5 receptor at 10 uM
T2 sequence (whole entry): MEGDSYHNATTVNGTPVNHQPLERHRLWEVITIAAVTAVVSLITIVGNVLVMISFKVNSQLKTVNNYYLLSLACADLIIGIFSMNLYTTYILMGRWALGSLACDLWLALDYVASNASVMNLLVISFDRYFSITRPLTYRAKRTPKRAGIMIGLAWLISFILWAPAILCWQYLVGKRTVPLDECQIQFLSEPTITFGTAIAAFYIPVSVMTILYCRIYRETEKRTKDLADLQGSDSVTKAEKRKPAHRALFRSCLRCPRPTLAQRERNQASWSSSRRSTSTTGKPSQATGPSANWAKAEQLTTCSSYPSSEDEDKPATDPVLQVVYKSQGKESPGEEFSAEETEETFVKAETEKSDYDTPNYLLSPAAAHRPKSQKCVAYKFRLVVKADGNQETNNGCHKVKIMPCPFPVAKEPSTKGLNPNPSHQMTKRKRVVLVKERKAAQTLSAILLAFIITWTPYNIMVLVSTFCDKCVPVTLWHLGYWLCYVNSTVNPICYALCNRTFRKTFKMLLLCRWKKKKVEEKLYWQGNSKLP

Rattus norvegicus [8] = assay: Increase in noradrenaline level in interstitial fluid of rat prefrontal cortex at 0.3 to 3.2 mg/kg, sc by microdialysis method relative to baseline level; format: functional; conditions: dose mg/kg 0.3-3.2; route subcutaneous
Rattus norvegicus [9] = assay: Effect on 5-hydroxyindoleacetic acid level in rat prefrontal cortex up to 3.2 mg/kg, sc by microdialysis method; format: functional, organism-based; design: dose 3.2 mg/kg
Rattus norvegicus [10] = assay: Effect on dihydroxyphenylacetic acid level in rat prefrontal cortex up to 3.2 mg/kg, sc by microdialysis method; format: functional, organism-based; design: dose 3.2 mg/kg
Rattus norvegicus [11] = assay: Ex vivo NET occupancy in rat neocortical tissue at 3 mg/kg, sc after 1 hr by [3H]nisoxetine binding assay; format: functional; conditions: route subcutaneous
[12] = Dissociation constant, pKa of the compound; format: physicochemical
Cytochrome P450 1A2 = target: T3, Cytochrome P450 1A2 (Homo sapiens, UniProt P05177); assay: Inhibition of CYP1A2; format: ADME
T3 sequence (P05177 whole entry): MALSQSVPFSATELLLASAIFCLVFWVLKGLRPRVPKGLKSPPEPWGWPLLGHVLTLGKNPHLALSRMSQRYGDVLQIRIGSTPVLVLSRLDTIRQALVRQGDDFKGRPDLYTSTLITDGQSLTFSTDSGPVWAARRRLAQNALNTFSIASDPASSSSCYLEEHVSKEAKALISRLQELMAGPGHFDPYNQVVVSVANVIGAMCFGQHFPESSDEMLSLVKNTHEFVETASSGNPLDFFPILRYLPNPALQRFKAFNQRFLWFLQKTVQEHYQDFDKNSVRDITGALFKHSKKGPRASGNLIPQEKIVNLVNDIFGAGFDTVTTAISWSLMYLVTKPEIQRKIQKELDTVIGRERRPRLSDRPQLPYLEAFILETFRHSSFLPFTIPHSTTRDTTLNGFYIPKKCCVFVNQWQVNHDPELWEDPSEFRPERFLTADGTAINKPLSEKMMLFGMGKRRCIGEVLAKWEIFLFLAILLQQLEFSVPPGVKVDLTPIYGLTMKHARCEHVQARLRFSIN

Cytochrome P450 2C9 = Cytochrome P450 2C9 (Homo sapiens, UniProt P11712); assay: Inhibition of CYP2C9; format: ADME
Sequence of Cytochrome P450 2C9 (P11712 whole entry): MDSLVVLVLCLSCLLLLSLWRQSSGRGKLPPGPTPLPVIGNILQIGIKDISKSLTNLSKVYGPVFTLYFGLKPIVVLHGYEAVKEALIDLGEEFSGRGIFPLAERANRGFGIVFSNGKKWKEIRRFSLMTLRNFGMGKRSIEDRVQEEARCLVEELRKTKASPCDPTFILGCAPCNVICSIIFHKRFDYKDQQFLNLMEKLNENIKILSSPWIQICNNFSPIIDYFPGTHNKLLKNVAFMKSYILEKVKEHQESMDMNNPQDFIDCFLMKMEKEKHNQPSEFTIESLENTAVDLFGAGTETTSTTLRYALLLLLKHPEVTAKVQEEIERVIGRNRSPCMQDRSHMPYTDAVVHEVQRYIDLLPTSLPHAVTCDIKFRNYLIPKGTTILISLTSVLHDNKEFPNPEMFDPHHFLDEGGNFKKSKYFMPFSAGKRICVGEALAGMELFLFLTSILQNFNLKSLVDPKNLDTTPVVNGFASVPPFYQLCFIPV

Cytochrome P450 2C19 = Cytochrome P450 2C19 (Homo sapiens, UniProt P33261); assay: Inhibition of CYP2C19; format: ADME
Cytochrome P450 3A4 [13] = target: T4, Cytochrome P450 3A4 (Homo sapiens, UniProt P08684); assay: Inhibition of CYP3A4 using felodipine as substrate; format: ADME
T4 sequence (P08684 whole entry): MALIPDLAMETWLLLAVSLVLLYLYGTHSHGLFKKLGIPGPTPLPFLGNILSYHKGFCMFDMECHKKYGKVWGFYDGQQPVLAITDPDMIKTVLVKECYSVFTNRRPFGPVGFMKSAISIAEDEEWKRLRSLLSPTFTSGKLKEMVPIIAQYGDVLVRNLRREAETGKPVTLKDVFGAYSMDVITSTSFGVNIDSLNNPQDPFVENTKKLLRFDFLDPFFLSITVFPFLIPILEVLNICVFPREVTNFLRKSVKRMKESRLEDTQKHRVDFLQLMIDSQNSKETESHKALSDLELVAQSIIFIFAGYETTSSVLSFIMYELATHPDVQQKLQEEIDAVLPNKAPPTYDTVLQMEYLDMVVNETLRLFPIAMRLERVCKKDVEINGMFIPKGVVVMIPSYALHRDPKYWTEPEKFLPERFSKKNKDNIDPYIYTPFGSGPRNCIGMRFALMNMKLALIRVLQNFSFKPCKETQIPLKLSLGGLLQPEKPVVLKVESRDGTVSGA

Cytochrome P450 3A4 [14] = target: T4, Cytochrome P450 3A4; assay: Inhibition of CYP3A4 using midazolam as substrate; format: ADME
Cytochrome P450 3A4 [15] = target: T4, Cytochrome P450 3A4; assay: Inhibition of CYP3A4 using testosterone as substrate; format: ADME
[16] = Apparent permeability from apical to basolateral side of human Caco-2 cells at 10 uM; format: ADME, cell-based
[17] = Apparent permeability from basolateral to apical side of human Caco-2 cells at 10 uM; format: ADME, cell-based
MDR1 (P-gp) [18] = assay: Apparent permeability from apical to basolateral side of MDCK cells expressing MDR1 at 10 uM; format: ADME, cell-based, Canis lupus familiaris; conditions: dog
MDR1 (P-gp) [19] = assay: Apparent permeability from basolateral to apical side of MDCK cells expressing MDR1 at 10 uM; format: ADME, cell-based, Canis lupus familiaris; conditions: dog
MDR1 (P-gp) [20] = assay: Efflux ratio of permeability from […] in MDCK cells expressing MDR1 at 10 uM; format: ADME, cell-based, Canis lupus familiaris; conditions: dog
[21] = Binding affinity to sodium channel site 2
[22] = target: Sodium channel protein type 5 subunit alpha (Homo sapiens, UniProt Q14524); assay: Blockade of Nav1.5 sodium channel
Sequence of Sodium channel protein type 5 subunit alpha (Q14524 whole entry): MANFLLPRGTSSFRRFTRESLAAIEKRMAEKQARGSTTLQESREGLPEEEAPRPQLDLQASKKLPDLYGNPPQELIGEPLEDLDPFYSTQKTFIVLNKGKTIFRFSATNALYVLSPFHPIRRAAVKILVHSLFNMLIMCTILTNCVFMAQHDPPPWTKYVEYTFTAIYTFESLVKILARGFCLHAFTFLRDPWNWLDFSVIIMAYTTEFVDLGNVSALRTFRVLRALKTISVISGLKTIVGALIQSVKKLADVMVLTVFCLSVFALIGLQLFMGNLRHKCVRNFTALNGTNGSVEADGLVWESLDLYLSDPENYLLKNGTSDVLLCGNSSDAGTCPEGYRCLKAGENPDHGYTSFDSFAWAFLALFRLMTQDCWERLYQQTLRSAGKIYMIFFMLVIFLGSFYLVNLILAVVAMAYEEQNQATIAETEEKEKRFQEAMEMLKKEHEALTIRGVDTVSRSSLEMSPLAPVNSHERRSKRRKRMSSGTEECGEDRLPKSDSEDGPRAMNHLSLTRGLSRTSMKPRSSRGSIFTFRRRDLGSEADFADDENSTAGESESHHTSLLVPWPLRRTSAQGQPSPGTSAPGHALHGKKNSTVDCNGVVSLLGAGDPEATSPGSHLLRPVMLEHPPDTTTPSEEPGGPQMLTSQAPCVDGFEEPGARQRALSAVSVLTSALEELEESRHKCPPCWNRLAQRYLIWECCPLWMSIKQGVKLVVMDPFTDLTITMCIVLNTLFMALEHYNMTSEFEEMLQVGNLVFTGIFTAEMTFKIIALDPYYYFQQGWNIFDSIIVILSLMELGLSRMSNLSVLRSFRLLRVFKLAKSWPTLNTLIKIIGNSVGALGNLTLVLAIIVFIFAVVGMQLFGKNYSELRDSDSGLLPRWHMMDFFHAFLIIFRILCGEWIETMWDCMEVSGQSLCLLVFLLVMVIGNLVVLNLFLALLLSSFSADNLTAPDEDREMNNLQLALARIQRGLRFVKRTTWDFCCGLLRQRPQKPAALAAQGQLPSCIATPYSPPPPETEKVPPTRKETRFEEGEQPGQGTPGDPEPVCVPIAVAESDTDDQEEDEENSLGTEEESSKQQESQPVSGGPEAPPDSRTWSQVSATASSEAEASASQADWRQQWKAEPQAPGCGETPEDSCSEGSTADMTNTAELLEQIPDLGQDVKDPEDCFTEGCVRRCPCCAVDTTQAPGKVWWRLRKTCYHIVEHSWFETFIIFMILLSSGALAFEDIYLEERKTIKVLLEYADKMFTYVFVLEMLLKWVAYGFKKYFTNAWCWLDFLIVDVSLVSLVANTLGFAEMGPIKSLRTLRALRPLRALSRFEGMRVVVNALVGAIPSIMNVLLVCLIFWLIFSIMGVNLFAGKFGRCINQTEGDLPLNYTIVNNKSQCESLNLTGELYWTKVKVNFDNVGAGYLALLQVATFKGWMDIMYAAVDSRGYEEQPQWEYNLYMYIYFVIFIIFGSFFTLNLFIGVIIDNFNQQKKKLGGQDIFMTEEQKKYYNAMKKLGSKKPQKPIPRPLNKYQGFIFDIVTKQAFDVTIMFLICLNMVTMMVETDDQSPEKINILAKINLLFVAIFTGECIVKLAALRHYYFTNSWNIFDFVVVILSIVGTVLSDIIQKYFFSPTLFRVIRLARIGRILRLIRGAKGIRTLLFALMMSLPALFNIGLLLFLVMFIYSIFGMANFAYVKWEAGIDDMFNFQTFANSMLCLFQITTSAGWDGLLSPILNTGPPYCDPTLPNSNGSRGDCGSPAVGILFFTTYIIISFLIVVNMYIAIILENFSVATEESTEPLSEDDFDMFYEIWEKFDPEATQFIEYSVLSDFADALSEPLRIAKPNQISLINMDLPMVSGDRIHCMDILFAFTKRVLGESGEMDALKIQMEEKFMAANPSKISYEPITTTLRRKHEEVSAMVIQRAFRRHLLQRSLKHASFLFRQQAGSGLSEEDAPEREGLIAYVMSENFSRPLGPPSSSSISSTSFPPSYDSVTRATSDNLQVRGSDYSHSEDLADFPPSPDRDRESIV

Transporter = Transporter (Rattus norvegicus, UniProt Q63380); assay: Binding affinity to rat NET expressed in HEK293 cells; format: cell-based
[23] = target: T5, Muscarinic acetylcholine receptor M4 (Homo sapiens, UniProt P08173); assay: Binding affinity to human muscarinic M4 receptor
T5 sequence (P08173 whole entry): T1 sequence (whole entry)

[24] = target: T6, Muscarinic acetylcholine receptor M5 (Homo sapiens, UniProt P08912); assay: Binding affinity to human muscarinic M5 receptor
T6 sequence (P08912 whole entry): T2 sequence (whole entry)

Ki [1]: 2290 nM
Ki [2]: 224 nM
Ki [3]: 6 nM
microsomal CLint [5]: < 7 µL/min/mg
IC50 (Cytochrome P450 2D6): 15.1 µM
inhibition [6]: > 50%
inhibition [7]: > 50%
pKa [12]: 9.5
IC50 (Cytochrome P450 1A2): > 30 µM
IC50 (Cytochrome P450 2C9): > 30 µM
IC50 (Cytochrome P450 2C19): > 30 µM
IC50 (Cytochrome P450 3A4 [13]): 22 µM
IC50 (Cytochrome P450 3A4 [14]): 12.2 µM
IC50 (Cytochrome P450 3A4 [15]): 31.2 µM
Papp A→B at 10 µM [16]: 16 ×10⁻⁶ cm/s
Papp B→A at 10 µM [17]: 33 ×10⁻⁶ cm/s
Papp A→B at 10 µM (MDR1 (P-gp) [18]): 11 ×10⁻⁶ cm/s
Papp B→A at 10 µM (MDR1 (P-gp) [19]): 57 ×10⁻⁶ cm/s
efflux ratio at 10 µM (MDR1 (P-gp) [20]): 5.2
Ki [21]: 3.7 µM
Ki (Transporter): 3.9 nM
Ki [23]: 4.3 µM
Ki [24]: 1800 nM
SMILES: O=C(c1ccccc1C(F)(F)F)N(CC1CCC1)[C@H]1CCNC1
IC50 [4]: > 20 µM
inhibition at 10 µM (hERG (KCNH2)): 48%
Activity (Rattus norvegicus [8]): 200%
Activity (Rattus norvegicus [9]): inactive
Activity (Rattus norvegicus [10]): inactive
Activity (Rattus norvegicus [11]): 52%
IC50 [22]: > 26 µM
